Experimental data: patent US20230148214A1, “INDAZOLES AND AZAINDAZOLES AS LRRK2 INHIBITORS” (ESCAPE Bio, Inc., priority 2020, published 2023)

How the values were obtained:
LRRK2 WT = molecular target: T1, LRRK2 WT (Homo sapiens, UniProt Q5S007); assay: LRRK2 Kinase Activity Assay (LanthaScreen TR-FRET), wild type; type: biochemical; details: recombinant wild type LRRK2, 25 μM ATP, 400 nM LRRKtide, 60 min; class symbols
T1 construct: purchased Life Technologies PR8604B
In short: (§1)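 Recombinant wild-type or G2019S LRRK2 incubated with fluorescein-labeled LRRKtide (ERM-based) peptide, ATP and serially diluted compound for 60 min at room temperature.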

LRRK2 G2019S = molecular target: T2, LRRK2 G2019S (Homo sapiens, UniProt Q5S007, G2019S); assay: LRRK2 Kinase Activity Assay (LanthaScreen TR-FRET), G2019S; type: biochemical; details: recombinant G2019S-LRRK2, 25 μM ATP, 400 nM LRRKtide, 60 min; class symbols
T2 construct: purchased Life Technologies PV4881
In short: as §1

T1 sequence (Q5S007 whole entry): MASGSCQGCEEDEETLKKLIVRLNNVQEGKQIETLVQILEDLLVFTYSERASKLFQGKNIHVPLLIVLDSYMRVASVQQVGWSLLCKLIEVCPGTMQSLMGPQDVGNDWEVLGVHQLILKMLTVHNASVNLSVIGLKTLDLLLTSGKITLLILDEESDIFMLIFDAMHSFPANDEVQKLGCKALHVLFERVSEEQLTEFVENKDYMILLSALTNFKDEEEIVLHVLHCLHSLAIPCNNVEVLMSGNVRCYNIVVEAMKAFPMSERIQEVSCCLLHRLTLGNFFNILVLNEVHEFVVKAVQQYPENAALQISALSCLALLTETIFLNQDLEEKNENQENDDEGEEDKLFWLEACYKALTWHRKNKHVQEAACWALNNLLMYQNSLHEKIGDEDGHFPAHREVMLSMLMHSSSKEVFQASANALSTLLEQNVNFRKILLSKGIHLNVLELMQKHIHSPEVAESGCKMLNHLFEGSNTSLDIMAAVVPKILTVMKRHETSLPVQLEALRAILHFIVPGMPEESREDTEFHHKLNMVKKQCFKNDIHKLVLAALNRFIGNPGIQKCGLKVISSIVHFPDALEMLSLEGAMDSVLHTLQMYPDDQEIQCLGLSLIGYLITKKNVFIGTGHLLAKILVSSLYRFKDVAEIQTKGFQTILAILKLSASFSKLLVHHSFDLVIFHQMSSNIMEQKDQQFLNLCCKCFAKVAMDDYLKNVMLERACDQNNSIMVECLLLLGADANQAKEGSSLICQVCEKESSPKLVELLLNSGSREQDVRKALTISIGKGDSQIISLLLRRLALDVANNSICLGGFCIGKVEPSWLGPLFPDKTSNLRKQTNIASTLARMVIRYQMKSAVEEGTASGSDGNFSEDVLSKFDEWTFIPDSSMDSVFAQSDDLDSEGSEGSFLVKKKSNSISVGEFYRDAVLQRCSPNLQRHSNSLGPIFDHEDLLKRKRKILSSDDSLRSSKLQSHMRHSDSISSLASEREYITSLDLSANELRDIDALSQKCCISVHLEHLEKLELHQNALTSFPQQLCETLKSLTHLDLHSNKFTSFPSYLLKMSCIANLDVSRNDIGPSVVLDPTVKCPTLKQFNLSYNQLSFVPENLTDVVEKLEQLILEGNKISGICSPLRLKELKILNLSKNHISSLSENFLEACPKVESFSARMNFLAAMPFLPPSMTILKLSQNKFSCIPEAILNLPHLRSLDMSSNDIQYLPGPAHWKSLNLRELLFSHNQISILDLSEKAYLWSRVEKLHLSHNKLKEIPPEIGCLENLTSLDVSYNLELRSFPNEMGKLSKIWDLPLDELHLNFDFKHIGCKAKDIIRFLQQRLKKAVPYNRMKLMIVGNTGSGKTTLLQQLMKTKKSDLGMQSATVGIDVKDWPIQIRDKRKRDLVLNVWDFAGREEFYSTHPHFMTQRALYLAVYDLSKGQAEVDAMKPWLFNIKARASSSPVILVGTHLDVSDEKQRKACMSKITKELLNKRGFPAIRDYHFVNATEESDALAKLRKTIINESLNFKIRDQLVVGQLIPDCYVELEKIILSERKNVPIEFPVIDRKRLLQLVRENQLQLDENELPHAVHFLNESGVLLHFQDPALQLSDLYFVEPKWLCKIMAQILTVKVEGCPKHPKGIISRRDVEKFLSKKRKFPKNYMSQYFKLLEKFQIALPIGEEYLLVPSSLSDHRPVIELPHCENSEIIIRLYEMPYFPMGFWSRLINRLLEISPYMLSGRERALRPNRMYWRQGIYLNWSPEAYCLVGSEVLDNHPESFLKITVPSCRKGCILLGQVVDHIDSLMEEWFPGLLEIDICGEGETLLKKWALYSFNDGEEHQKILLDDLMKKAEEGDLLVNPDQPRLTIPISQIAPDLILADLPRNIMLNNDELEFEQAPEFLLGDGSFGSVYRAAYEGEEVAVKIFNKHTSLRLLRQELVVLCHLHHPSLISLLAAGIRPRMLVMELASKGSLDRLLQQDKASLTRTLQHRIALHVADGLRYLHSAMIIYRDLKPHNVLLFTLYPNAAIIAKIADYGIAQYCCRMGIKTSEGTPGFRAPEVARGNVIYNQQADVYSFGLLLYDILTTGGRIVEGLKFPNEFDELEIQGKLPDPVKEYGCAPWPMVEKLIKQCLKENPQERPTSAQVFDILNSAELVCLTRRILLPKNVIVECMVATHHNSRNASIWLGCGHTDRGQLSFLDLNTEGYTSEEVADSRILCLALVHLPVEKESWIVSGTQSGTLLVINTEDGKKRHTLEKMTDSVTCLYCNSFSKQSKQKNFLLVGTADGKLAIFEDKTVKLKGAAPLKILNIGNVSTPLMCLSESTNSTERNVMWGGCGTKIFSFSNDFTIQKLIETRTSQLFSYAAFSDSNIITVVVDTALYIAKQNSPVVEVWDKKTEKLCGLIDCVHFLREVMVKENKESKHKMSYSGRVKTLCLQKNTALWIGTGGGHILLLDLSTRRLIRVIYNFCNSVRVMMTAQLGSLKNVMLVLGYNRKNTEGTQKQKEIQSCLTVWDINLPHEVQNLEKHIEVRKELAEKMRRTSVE
T2 sequence (Q5S007 whole entry G2019S): as the sequence (Q5S007 whole entry) above, with G2019S counted along it

Compound | IC50 (LRRK2 WT) | IC50 (LRRK2 G2019S)
N#Cc1cc(F)c2c(c1)CC[C@H]2Nc1ccc2[nH]nc(-c3cnco3)c2c1 (single isomer, unassigned) [Example 132, enantiomer 1, 5-((5-Cyano-7-fluoro-2,3-dihydro-1H-inden-1-yl)amino)-3-(oxazol-5-yl)-1H-indazol-2-ium] | < 100 nM | < 100 nM
N#Cc1ccc2c(n1)CCC[C@H]2Oc1ccc2[nH]nc(C3CC3)c2c1 (single isomer, unassigned) [Example 133, enantiomer 1, 5-((3-Cyclopropyl-1H-indazol-5-yl)oxy)-5,6,7,8-tetrahydroquinoline-2-carbonitrile] | 1000 to 10000 nM | 100 to 1000 nM
N#Cc1ccc2c(n1)CCC[C@H]2Oc1ccc2[nH]nc(C3CC3)c2c1 (single isomer, unassigned) [Example 133, enantiomer 2, 5-((3-Cyclopropyl-1H-indazol-5-yl)oxy)-5,6,7,8-tetrahydroquinoline-2-carbonitrile] | 1000 to 10000 nM | < 100 nM
N#Cc1ccc2c(c1)CC[C@@H]2Nc1ccc2[nH]nc(C3CC3)c2c1 (single isomer, unassigned) [Example 134, enantiomer 1, 1-((3-Cyclopropyl-1H-indazol-5-yl)amino)-2,3-dihydro-1H-indene-5-carbonitrile] | 1000 to 10000 nM | 100 to 1000 nM
N#Cc1ccc2c(c1)CC[C@@H]2Nc1ccc2[nH]nc(C3CC3)c2c1 (single isomer, unassigned) [Example 134, enantiomer 2, 1-((3-Cyclopropyl-1H-indazol-5-yl)amino)-2,3-dihydro-1H-indene-5-carbonitrile] | 1000 to 10000 nM | 100 to 1000 nM
N#Cc1ccc2c(n1)CCC[C@@H]2Oc1ccc2[nH]nc(I)c2c1 (single isomer, unassigned) [Example 135, enantiomer 1, 5-((3-Iodo-1H-indazol-5-yl)oxy)-5,6,7,8-tetrahydroquinoline-2-carbonitrile] | 100 to 1000 nM | < 100 nM
N#Cc1ccc2c(n1)CCC[C@@H]2Oc1ccc2[nH]nc(I)c2c1 (single isomer, unassigned) [Example 135, enantiomer 2, 5-((3-Iodo-1H-indazol-5-yl)oxy)-5,6,7,8-tetrahydroquinoline-2-carbonitrile] | 100 to 1000 nM | < 100 nM
N#Cc1cnc2c(c1)CCC[C@@H]2Oc1ccc2[nH]nc(C3CC3)c2c1 (single isomer, unassigned) [Example 136, enantiomer 1, 8-((3-Cyclopropyl-1H-indazol-5-yl)oxy)-5,6,7,8-tetrahydroquinoline-3-carbonitrile] | 100 to 1000 nM | < 100 nM
N#Cc1cnc2c(c1)CCC[C@@H]2Oc1ccc2[nH]nc(I)c2c1 (single isomer, unassigned) [Example 137, enantiomer 1, 8-((3-Iodo-1H-indazol-5-yl)oxy)-5,6,7,8-tetrahydroquinoline-3-carbonitrile] | < 100 nM | < 100 nM
N#Cc1cnc2c(c1)CCC[C@@H]2Oc1ccc2[nH]nc(I)c2c1 (single isomer, unassigned) [Example 137, enantiomer 2, 8-((3-Iodo-1H-indazol-5-yl)oxy)-5,6,7,8-tetrahydroquinoline-3-carbonitrile] | 100 to 1000 nM | < 100 nM
N#Cc1ccc2c(c1)C(F)(F)C[C@@H]2Nc1ccc2[nH]nc(-c3cnco3)c2c1 (single isomer, unassigned) [Example 138, enantiomer 1, 3,3-Difluoro-1-((3-(oxazol-5-yl)-1H-indazol-5-yl)amino)-2,3-dihydro-1H-indene-5-carbonitrile] | < 100 nM | < 100 nM
N#Cc1ccc2c(c1)C(F)(F)C[C@@H]2Nc1ccc2[nH]nc(-c3cnco3)c2c1 (single isomer, unassigned) [Example 138, enantiomer 2, 3,3-Difluoro-1-((3-(oxazol-5-yl)-1H-indazol-5-yl)amino)-2,3-dihydro-1H-indene-5-carbonitrile] | 100 to 1000 nM | < 100 nM
N#Cc1ccc2c(c1)CCC[C@@H]2Nc1ccc2[nH]nc(CC3CC3)c2c1 (single isomer, unassigned) [Example 139, enantiomer 1, 5-((3-(Cyclopropylmethyl)-1H-indazol-5-yl)amino)-5,6,7,8-tetrahydronaphthalene-2-carbonitrile] | 1000 to 10000 nM | 1000 to 10000 nM
N#Cc1ccc2c(c1)CCC[C@@H]2Nc1ccc2[nH]nc(CC3CC3)c2c1 (single isomer, unassigned) [Example 139, enantiomer 2, 5-((3-(Cyclopropylmethyl)-1H-indazol-5-yl)amino)-5,6,7,8-tetrahydronaphthalene-2-carbonitrile] | 1000 to 10000 nM | < 100 nM
N#Cc1ccc2c(c1)C1(CC1)C[C@@H]2Nc1ccc2[nH]nc(-c3cnco3)c2c1 (single isomer, unassigned) [Example 140, enantiomer 1, 3′-((3-(Oxazol-5-yl)-1H-indazol-5-yl)amino)-2′,3′-dihydrospiro[cyclopropane-1,1′-indene]-6′-carbonitrile] | 100 to 1000 nM | < 100 nM
N#Cc1ccc2c(c1)C1(CC1)C[C@@H]2Nc1ccc2[nH]nc(-c3cnco3)c2c1 (single isomer, unassigned) [Example 140, enantiomer 2, 3′-((3-(Oxazol-5-yl)-1H-indazol-5-yl)amino)-2′,3′-dihydrospiro[cyclopropane-1,1′-indene]-6′-carbonitrile] | 100 to 1000 nM | < 100 nM
N#Cc1cnc2c(c1)CCC[C@@H]2Oc1ccc2[nH]nc(-c3cnn(C(F)F)c3)c2c1 (single isomer, unassigned) [Example 141, enantiomer 1, 8-((3-(1-(Difluoromethyl)-1H-pyrazol-4-yl)-1H-indazol-5-yl)oxy)-5,6,7,8-tetrahydroquinoline-3-carbonitrile] | < 100 nM | < 100 nM
N#Cc1cnc2c(c1)CCC[C@@H]2Nc1ccc2[nH]nc(-c3cncs3)c2c1 (single isomer, unassigned) [Example 142, enantiomer 1, 8-((3-(Thiazol-5-yl)-1H-indazol-5-yl)amino)-5,6,7,8-tetrahydroquinoline-3-carbonitrile] | 100 to 1000 nM | < 100 nM
N#Cc1ccc2c(c1Cl)CCC[C@@H]2Nc1ccc2[nH]nc(-c3cnco3)c2c1 (single isomer, unassigned) [Example 143, enantiomer 1, 1-Chloro-5-((3-(oxazol-5-yl)-1H-indazol-5-yl)amino)-5,6,7,8-tetrahydronaphthalene-2-carbonitrile] | 100 to 1000 nM | < 100 nM
N#Cc1cnc2c(c1Cl)CCC[C@@H]2Nc1ccc2[nH]nc(-c3cnco3)c2c1 (single isomer, unassigned) [Example 144, enantiomer 1, 4-Chloro-8-((3-(oxazol-5-yl)-1H-indazol-5-yl)amino)-5,6,7,8-tetrahydroquinoline-3-carbonitrile] | 100 to 1000 nM | 100 to 1000 nM
N#Cc1cnc2c(c1Cl)CCC[C@@H]2Nc1ccc2[nH]nc(-c3cnco3)c2c1 (single isomer, unassigned) [Example 144, enantiomer 2, 4-Chloro-8-((3-(oxazol-5-yl)-1H-indazol-5-yl)amino)-5,6,7,8-tetrahydroquinoline-3-carbonitrile] | < 100 nM | < 100 nM
N#Cc1cnc2c(c1C(F)(F)F)CCC[C@@H]2Nc1ccc2[nH]nc(-c3cnco3)c2c1 (single isomer, unassigned) [Example 145, enantiomer 1, 8-((3-(Oxazol-5-yl)-1H-indazol-5-yl)amino)-4-(trifluoromethyl)-5,6,7,8-tetrahydroquinoline-3-carbonitrile] | 100 to 1000 nM | < 100 nM
COc1c(C#N)cnc2c1CCC[C@@H]2Nc1ccc2[nH]nc(-c3cnco3)c2c1 (single isomer, unassigned) [Example 146, enantiomer 1, 4-Methoxy-8-((3-(oxazol-5-yl)-1H-indazol-5-yl)amino)-5,6,7,8-tetrahydroquinoline-3-carbonitrile] | 100 to 1000 nM | < 100 nM
N#Cc1cnc2c(c1C(F)F)CCC[C@@H]2Nc1ccc2[nH]nc(-c3cnco3)c2c1 (single isomer, unassigned) [Example 147, enantiomer 1, 4-(Difluoromethyl)-8-((3-(oxazol-5-yl)-1H-indazol-5-yl)amino)-5,6,7,8-tetrahydroquinoline-3-carbonitrile] | < 100 nM | < 100 nM
N#Cc1cnc2c(c1C(F)F)CCC[C@@H]2Nc1ccc2[nH]nc(-c3cnco3)c2c1 (single isomer, unassigned) [Example 147, enantiomer 2, 4-(Difluoromethyl)-8-((3-(oxazol-5-yl)-1H-indazol-5-yl)amino)-5,6,7,8-tetrahydroquinoline-3-carbonitrile] | 100 to 1000 nM | < 100 nM
N#Cc1cnc2c(c1)CCC[C@@H]2Nc1ccc2[nH]nc(-c3ccc[nH]3)c2c1 (single isomer, unassigned) [Example 148, enantiomer 1, 8-((3-(1H-Pyrrol-2-yl)-1H-indazol-5-yl)amino)-5,6,7,8-tetrahydroquinoline-3-carbonitrile] | < 100 nM | < 100 nM
N#Cc1cnc2c(c1)CCC[C@@H]2Nc1ccc2[nH]nc(-c3ccc[nH]3)c2c1 (single isomer, unassigned) [Example 148, enantiomer 2, 8-((3-(1H-Pyrrol-2-yl)-1H-indazol-5-yl)amino)-5,6,7,8-tetrahydroquinoline-3-carbonitrile] | 100 to 1000 nM | 100 to 1000 nM
Cn1ccc(-c2n[nH]c3ccc(N[C@H]4CCCc5cc(C#N)cnc54)cc23)c1 (single isomer, unassigned) [Example 149, enantiomer 1, 8-((3-(1-Methyl-1H-pyrrol-3-yl)-1H-indazol-5-yl)amino)-5,6,7,8-tetrahydroquinoline-3-carbonitrile] | 100 to 1000 nM | 100 to 1000 nM
